{"source": "paper PMC8544881", "about": "(mSphere, 2021)", "molecular_target": "T1, ZBTB25 (Homo sapiens, UniProt P24278)", "T1 construct": "recombinant ZBTB25 protein", "T1 sequence (P24278 1-435)": "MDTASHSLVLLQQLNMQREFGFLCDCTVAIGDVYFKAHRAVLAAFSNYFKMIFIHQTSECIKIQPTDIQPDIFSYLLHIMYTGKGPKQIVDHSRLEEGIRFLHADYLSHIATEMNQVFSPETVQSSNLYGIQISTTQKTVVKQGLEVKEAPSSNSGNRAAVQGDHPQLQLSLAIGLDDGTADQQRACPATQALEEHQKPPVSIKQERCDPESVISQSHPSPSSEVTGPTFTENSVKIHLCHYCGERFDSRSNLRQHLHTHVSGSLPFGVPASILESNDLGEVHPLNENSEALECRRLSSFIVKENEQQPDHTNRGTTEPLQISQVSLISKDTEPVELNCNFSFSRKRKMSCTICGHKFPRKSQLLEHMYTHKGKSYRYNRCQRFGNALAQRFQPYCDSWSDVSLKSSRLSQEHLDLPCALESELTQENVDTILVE", "experiment": "zinc ejection assay with FluoZin-3 fluorescence", "type": "binding"}
{"compound": "CCN(CC)C(=S)SSC(=S)N(CC)CC", "note": "[DS, disulfiram]", "values": [{"measurement": "IC50", "value": "10.3 ± 0.3", "unit": "µM"}]}
{"compound": "dithiopyridine [DP]", "values": [{"measurement": "IC50", "value": "4.61 ± 0.28", "unit": "µM"}]}
